ChEMBL document CHEMBL3867489, “Design, synthesis, antibacterial activity and docking study of some new trimethoprim derivatives” (2016)
Values after ≈ are worked out from the molar mass of the structure shown.

Assays:
Staphylococcus aureus = assay: Antibacterial activity against Staphylococcus aureus by agar well diffusion method; assay type: functional
Escherichia coli = assay: Antibacterial activity against Escherichia coli by agar well diffusion method; assay type: functional

Q: COc1cc(Cc2cnc(N)nc2/N=C/c2ccc(Cl)cc2)cc(OC)c1O was tested. Which MIC (Staphylococcus aureus) did it give?
A: 535 µM (≈ 214 µg/mL)

Q: What about the MIC (Escherichia coli) of the same compound?
A: 535 µM (≈ 214 µg/mL)

Q: With COc1cc(Cc2cnc(N)nc2N)cc(OC)c1OCC(=O)c1ccccc1 as the compound, how does the MIC (Staphylococcus aureus) read?
A: 81.2 µM (≈ 32 µg/mL)

Q: What about the MIC (Escherichia coli) of the same compound?
A: 81.2 µM (≈ 32 µg/mL)

Q: With COc1cc(Cc2cnc(N)nc2N)cc(OC)c1OCc1ccc([N+](=O)[O-])cc1 as the compound, how does the MIC (Staphylococcus aureus) read?
A: 32.3 µM (≈ 13.3 µg/mL)

Q: And the MIC (Escherichia coli)?
A: 39 µM (≈ 16 µg/mL)

Q: How did the MIC (Staphylococcus aureus) turn out when COc1cc(Cc2cnc(N)nc2N)cc(OC)c1OCc1ccc(Cl)cc1 was run?
A: 20 µM (≈ 8.02 µg/mL)

Q: What about the MIC (Escherichia coli) of the same compound?
A: 8.3 µM (≈ 3.33 µg/mL)

Q: With COc1cc(Cc2cnc(N)nc2N)cc(OC)c1OCC(=O)c1ccc(Cl)cc1 as the compound, how does the MIC (Staphylococcus aureus) read?
A: 78.4 µM (≈ 33.6 µg/mL)

Q: What about the MIC (Escherichia coli) of the same compound?
A: 78.4 µM (≈ 33.6 µg/mL)

Q: Which results are given for COc1cc(Cc2cnc(N)nc2/N=C/c2ccc(O)cc2)cc(OC)c1O?
A: MIC (Staphylococcus aureus): 672 µM (≈ 256 µg/mL); MIC (Escherichia coli): 672 µM (≈ 256 µg/mL)

Q: With COc1cc(Cc2cnc(N)nc2N)cc(OC)c1OCc1ccc(C)cc1 as the compound, how does the MIC (Staphylococcus aureus) read?
A: 10 µM (≈ 3.8 µg/mL)

Q: What about the MIC (Escherichia coli) of the same compound?
A: 5 µM (≈ 1.9 µg/mL)

Q: How did the MIC (Staphylococcus aureus) turn out when COc1ccc(COc2c(OC)cc(Cc3cnc(N)nc3N)cc2OC)cc1 was run?
A: 5 µM (≈ 1.98 µg/mL)

Q: What about the MIC (Escherichia coli) of the same compound?
A: 4 µM (≈ 1.59 µg/mL)

Q: Which results are given for COc1cc(Cc2cnc(N)nc2N)cc(OC)c1O [4-HYDROXYTRIMETHOPRIM]?
A: MIC (Staphylococcus aureus): 24.1 µM (≈ 6.66 µg/mL); MIC (Escherichia coli): 48.2 µM (≈ 13.3 µg/mL)

Q: For COc1ccc(C(=O)COc2c(OC)cc(Cc3cnc(N)nc3N)cc2OC)cc1, which MIC (Staphylococcus aureus) is on record?
A: 18.7 µM (≈ 7.94 µg/mL)

Q: And the MIC (Escherichia coli)?
A: 18.7 µM (≈ 7.94 µg/mL)

Q: What does the source list for COc1cc(Cc2cnc(N)nc2N)cc(OC)c1OCc1ccccc1?
A: MIC (Staphylococcus aureus): 18.2 µM (≈ 6.67 µg/mL); MIC (Escherichia coli): 18.2 µM (≈ 6.67 µg/mL)

Q: What does the source list for COc1cc(Cc2cnc(N)nc2N)cc(OC)c1OCC(=O)c1ccc([N+](=O)[O-])cc1?
A: MIC (Staphylococcus aureus): 72.9 µM (≈ 32 µg/mL); MIC (Escherichia coli): 72.9 µM (≈ 32 µg/mL)

Q: Which MIC (Staphylococcus aureus) does the source give for COc1cc(Cc2cnc(N)nc2/N=C/c2cccc(O)c2)cc(OC)c1O here?
A: 672 µM (≈ 256 µg/mL)

Q: What about the MIC (Escherichia coli) of the same compound?
A: 336 µM (≈ 128 µg/mL)

Q: COc1cc(Cc2cnc(N)nc2N)cc(OC)c1OCC(=O)c1ccc(C)cc1 was tested. Which MIC (Staphylococcus aureus) did it give?
A: 37.7 µM (≈ 15.4 µg/mL)

Q: And the MIC (Escherichia coli)?
A: 15.5 µM (≈ 6.33 µg/mL)

Q: COc1cc(Cc2cnc(N)nc2N)cc(OC)c1OC [TRIMETHOPRIM] was tested. Which MIC (Staphylococcus aureus) did it give?
A: 22.7 µM (≈ 6.59 µg/mL)

Q: What about the MIC (Escherichia coli) of the same compound?
A: 55.1 µM (≈ 16 µg/mL)
